Biological target: T1, human GHSR1a (Homo sapiens, UniProt Q92847)
T1 construct: expressed in transfected cells
Assay: Aequorin luminescent functional assay (intracellular Ca2+, ghrelin-stimulated)
Details: stable cell line expressing human GHSR1a and apoaequorin; final ghrelin 3x EC50 (20 nM); read-out: Class (based on IC50 values)
Method: IC50 values of inventive compounds may be assessed as follows. An aequorin (Euroscreen) luminescent assay (Stabels et al., 1997) measuring the intracellular Ca^2+ concentration was used as the functional assay to evaluate the potency of the compounds. A stable cell line, expressing human GHSR1a and apoaequorin in mitochondria was used in the aequorin assay. 5×10^6 cells per mL were incubated at room temperature in HyClone Media (Perbio) supplemented with 2 μM coelenterazine (Molecular Probes). After 2 hrs cells were diluted to 1×10^6 cells per ml in HyClone Medium.
50 μL of the cell suspension was added to each well of a 96-well plate containing 50 μL of compound, diluted in HyClone Medium. The cell suspension/compound mixture was incubated for 30 seconds before 50 μL of a 9× EC50 concentrations of a human ghrelin solution, in HyClone Medium, was injected. The final Ghrelin concentration was 3× EC50 (20 nM). Aequorin luminescence elicited by intracellular Ca^2+ in the cells was recorded for a total of 60 seconds with a microplate luminometer (Microlumate, Berthold). IC50 of the compounds in this assay was calculated with Prism 4.

T1 sequence (Q92847 whole entry): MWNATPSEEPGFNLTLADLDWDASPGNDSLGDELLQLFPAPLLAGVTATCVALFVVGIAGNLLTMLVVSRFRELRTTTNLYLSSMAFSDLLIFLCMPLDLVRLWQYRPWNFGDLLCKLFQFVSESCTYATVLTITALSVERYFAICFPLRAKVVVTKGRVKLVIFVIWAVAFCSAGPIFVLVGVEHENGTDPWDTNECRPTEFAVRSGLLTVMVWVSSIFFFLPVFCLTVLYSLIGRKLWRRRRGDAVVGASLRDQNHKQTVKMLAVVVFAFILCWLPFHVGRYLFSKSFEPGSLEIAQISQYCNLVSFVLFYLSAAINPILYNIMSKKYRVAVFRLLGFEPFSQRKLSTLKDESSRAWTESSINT

| Compound | IC50 |
| --- | --- |
| Cc1cccc(C)c1Oc1ccc2c(c1)C(=O)N(C(C(=O)NC1CCN(C3CCc4ccccc43)CC1)C(C)C)CC(=O)N2 (stereo not shown) [2-[7-(2,6-dimethyl-phenoxy)-2,5-dioxo-1,2,3,5-tetrahydro-benzo[e][1,4]diazepin-4-yl]-N-(1-indan-1-yl-piperidin-4-yl)-3-methyl-butyramide] | ≤ 10 nM |
| CC(C)C(C(=O)N1CCC(NCCc2ccc(F)cc2)CC1)N1CCc2ccc(Oc3ccc(F)cc3F)cc2C1=O (stereo not shown) [7-(2,4-difluoro-phenoxy)-2-(1-{4-[2-(4-fluoro-phenyl)-ethylamino]-piperidine-1-carbonyl}-2-methyl-propyl)-3,4-dihydro-2H-isoquinolin-1-one] | ≤ 10 nM |
| Cc1ccccc1Oc1ccc2ncn(C(C(=O)NC3CCN(Cc4ccccc4)CC3)C(C)C)c(=O)c2c1 (stereo not shown) [N-(1-benzyl-piperidin-4-yl)-3-methyl-2-(4-oxo-6-o-tolyloxy-4H-quinazolin-3-yl)-butyramide] | 10 to 50 nM |
| CC(C)C(C(=O)N1CCC(NC2CC2)CC1)N1CCc2ccc(Oc3ccc(F)cc3F)cc2C1=O (stereo not shown) [2-{1-[4-(cyclopropyl-amino)-piperidine-1-carbonyl]-2-methyl-propyl}-7-(2,4-difluoro-phenoxy)-3,4-dihydro-2H-isoquinolin-1-one] | ≤ 10 nM |

From US7572783B2 (Amgen Inc., priority 2004, dated 2009)
